Common to all, as to experiment: relative viability (nuclei count vs DMSO), 5 days (fraction); higher = more cells survive
Compound in experiment [1]: CC1=CC(=NN1)NC2=CC(=NC(=N2)/C=C/C3=CC=CC=C3)N4CCN(CC4)C + NC(=O)Nc1cc(-c2cccc(F)c2)sc1C(=O)N[C@H]1CCCNC1 [AZD7762] (partner 0.2 µM)
The essentials: (§1)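 Each reported value is a median over duplicate plates. It expresses relative viability: treated-well nuclei count divided by vehicle-well nuclei count. Lung cancer cell lines in 1536-well plates were dosed by pin tool a day after seeding, alone with one drug or with a fixed anchor-drug dose plus five library-drug doses (not always all listed) in √10 steps, and nuclei were counted after 5 days.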

Compound in experiment [2]: CC1=CC(=NN1)NC2=CC(=NC(=N2)/C=C/C3=CC=CC=C3)N4CCN(CC4)C + Nc1nc2[nH]cc(CCc3ccc(C(=O)N[C@@H](CCC(=O)O)C(=O)O)cc3)c2c(=O)[nH]1 [Pemetrexed] (partner 0.2 µM)
The essentials:
as §1

Compound in experiment [3]: CC1=CC(=NN1)NC2=CC(=NC(=N2)/C=C/C3=CC=CC=C3)N4CCN(CC4)C + O=C(c1cc(Cc2n[nH]c(=O)c3ccccc23)ccc1F)N1CCN(C(=O)C2CC2)CC1 [Olaparib] (partner 8 µM)
The essentials: as §1

Compound in the experiment “Obatoclax + Olaparib”: COC1=CC(c2cc3ccccc3[nH]2)=N/C1=C\c1[nH]c(C)cc1C [Obatoclax] + O=C(c1cc(Cc2n[nH]c(=O)c3ccccc23)ccc1F)N1CCN(C(=O)C2CC2)CC1 [Olaparib] (partner 8 µM)
The essentials:
as §1

Consider PC-3 [JPC-3], for which the relative viability in experiment [1] (first compound 0.08 µM) is 0.709; in experiment [1] (first compound 0.253 µM), 0.805; in experiment [1] (first compound 0.8 µM), 0.764; in experiment [1] (first compound 2.53 µM), 0.554; in experiment [1] (first compound 8 µM) it was 0.303; in experiment [2] (first compound 0.08 µM), 1.15. Besides, the relative viability in experiment [2] (first compound 0.253 µM) stood at 1.2; in experiment [2] (first compound 0.8 µM), 1.03; in experiment [2] (first compound 2.53 µM), 0.849; in experiment [2] (first compound 8 µM) it was 0.361; in experiment [3] (first compound 0.08 µM), 1.16; in experiment [3] (first compound 0.253 µM) it was 1.31. Also, the relative viability was 1.22 in experiment [3] (first compound 0.8 µM); 1.09 in experiment [3] (first compound 2.53 µM); 0.615 in experiment [3] (first compound 8 µM); 1.09 in the experiment with Obatoclax + Olaparib (first compound 0.01 µM); 1.25 with Obatoclax + Olaparib (first compound 0.03162 µM); 1.02 in the experiment with Obatoclax + Olaparib (first compound 0.1 µM). Further, the relative viability in the experiment with Obatoclax + Olaparib (first compound 0.3162 µM) came out at 1; in the experiment with Obatoclax + Olaparib (first compound 1 µM) it was 0.514.
For PC-14, the relative viability in experiment [1] (first compound 0.08 µM) amounted to 0.346; in experiment [1] (first compound 0.253 µM), 0.446; in experiment [1] (first compound 0.8 µM) it was 0.354; in experiment [1] (first compound 2.53 µM), 0.28; in experiment [1] (first compound 8 µM), 0.0653; in experiment [2] (first compound 0.08 µM), 0.14. Further, the relative viability came to 0.134 in experiment [2] (first compound 0.253 µM); 0.15 in experiment [2] (first compound 0.8 µM); 0.0655 in experiment [2] (first compound 2.53 µM); 0.0336 in experiment [2] (first compound 8 µM); 0.285 in experiment [3] (first compound 0.08 µM); 0.289 in experiment [3] (first compound 0.253 µM). The relative viability is 0.275 in experiment [3] (first compound 0.8 µM); 0.0326 in experiment [3] (first compound 2.53 µM); 0.0264 in experiment [3] (first compound 8 µM); 0.285 with Obatoclax + Olaparib (first compound 0.01 µM); 0.306 with Obatoclax + Olaparib (first compound 0.03162 µM); 0.14 with Obatoclax + Olaparib (first compound 0.1 µM). Further, the relative viability amounted to 0.0684 with Obatoclax + Olaparib (first compound 0.3162 µM) and 0.081 with Obatoclax + Olaparib (first compound 1 µM).
As for RERF-LC-KJ, the relative viability amounted to 0.854 in experiment [1] (first compound 0.08 µM); 1.05 in experiment [1] (first compound 0.253 µM); 0.915 in experiment [1] (first compound 0.8 µM); 0.651 in experiment [1] (first compound 2.53 µM); 0.232 in experiment [1] (first compound 8 µM); 0.439 in experiment [2] (first compound 0.08 µM). For the same cell line, the relative viability in experiment [2] (first compound 0.253 µM) turned out to be 0.484; in experiment [2] (first compound 0.8 µM), 0.484; in experiment [2] (first compound 2.53 µM), 0.397; in experiment [2] (first compound 8 µM) it was 0.224; in experiment [3] (first compound 0.08 µM), 0.982; in experiment [3] (first compound 0.253 µM), 0.88. For the same cell line, the relative viability turned out to be 0.882 in experiment [3] (first compound 0.8 µM); 0.243 in experiment [3] (first compound 2.53 µM); 0.201 in experiment [3] (first compound 8 µM); 0.897 with Obatoclax + Olaparib (first compound 0.01 µM); 0.903 with Obatoclax + Olaparib (first compound 0.03162 µM); 0.897 with Obatoclax + Olaparib (first compound 0.1 µM). The relative viability with Obatoclax + Olaparib (first compound 0.3162 µM) turned out to be 0.863; with Obatoclax + Olaparib (first compound 1 µM) it was 0.33.
As for SW 900, the relative viability in experiment [1] (first compound 0.08 µM) stood at 0.534; in experiment [1] (first compound 0.253 µM), 0.526; in experiment [1] (first compound 0.8 µM), 0.649; in experiment [1] (first compound 2.53 µM), 0.314; in experiment [1] (first compound 8 µM), 0.104; in experiment [2] (first compound 0.08 µM) it was 0.469. Moreover, the relative viability is 0.491 in experiment [2] (first compound 0.253 µM); 0.49 in experiment [2] (first compound 0.8 µM); 0.407 in experiment [2] (first compound 2.53 µM); 0.102 in experiment [2] (first compound 8 µM); 0.863 in experiment [3] (first compound 0.08 µM); 0.89 in experiment [3] (first compound 0.253 µM). The relative viability in experiment [3] (first compound 0.8 µM) stood at 0.805; in experiment [3] (first compound 2.53 µM) it was 0.298; in experiment [3] (first compound 8 µM), 0.107; in the experiment with Obatoclax + Olaparib (first compound 0.01 µM), 0.893; in the experiment with Obatoclax + Olaparib (first compound 0.03162 µM), 0.803; with Obatoclax + Olaparib (first compound 0.1 µM) it was 0.924. Also, the relative viability was 0.703 with Obatoclax + Olaparib (first compound 0.3162 µM) and 0.606 with Obatoclax + Olaparib (first compound 1 µM).

The record behind these values is the supplement of paper PMC10307832.
